The term IC50 denotes the concentration needed to halve the response being measured. Low values mean greater potency in that assay, high ones weaker potency in that assay. As a reminder, the inhibition is the relative decrease from the control value, in per cent.

41 compounds from patent US8143259B2, “Cold menthol receptor antagonists” (Janssen Pharmaceutica, NV, priority 2008, dated 2012) can be followed below.

The structures appear in SMILES notation. Several values for one entry are separate records, joined by “and”; a condition that tells them apart may be missing. Identical values can stand only once.

The target in this experiment is T1, canine TRPM8 (Canis lupus familiaris, UniProt Q1A7N1).
T1 construct: expressed in transfected cells
T1 sequence (Q1A7N1 1-1104): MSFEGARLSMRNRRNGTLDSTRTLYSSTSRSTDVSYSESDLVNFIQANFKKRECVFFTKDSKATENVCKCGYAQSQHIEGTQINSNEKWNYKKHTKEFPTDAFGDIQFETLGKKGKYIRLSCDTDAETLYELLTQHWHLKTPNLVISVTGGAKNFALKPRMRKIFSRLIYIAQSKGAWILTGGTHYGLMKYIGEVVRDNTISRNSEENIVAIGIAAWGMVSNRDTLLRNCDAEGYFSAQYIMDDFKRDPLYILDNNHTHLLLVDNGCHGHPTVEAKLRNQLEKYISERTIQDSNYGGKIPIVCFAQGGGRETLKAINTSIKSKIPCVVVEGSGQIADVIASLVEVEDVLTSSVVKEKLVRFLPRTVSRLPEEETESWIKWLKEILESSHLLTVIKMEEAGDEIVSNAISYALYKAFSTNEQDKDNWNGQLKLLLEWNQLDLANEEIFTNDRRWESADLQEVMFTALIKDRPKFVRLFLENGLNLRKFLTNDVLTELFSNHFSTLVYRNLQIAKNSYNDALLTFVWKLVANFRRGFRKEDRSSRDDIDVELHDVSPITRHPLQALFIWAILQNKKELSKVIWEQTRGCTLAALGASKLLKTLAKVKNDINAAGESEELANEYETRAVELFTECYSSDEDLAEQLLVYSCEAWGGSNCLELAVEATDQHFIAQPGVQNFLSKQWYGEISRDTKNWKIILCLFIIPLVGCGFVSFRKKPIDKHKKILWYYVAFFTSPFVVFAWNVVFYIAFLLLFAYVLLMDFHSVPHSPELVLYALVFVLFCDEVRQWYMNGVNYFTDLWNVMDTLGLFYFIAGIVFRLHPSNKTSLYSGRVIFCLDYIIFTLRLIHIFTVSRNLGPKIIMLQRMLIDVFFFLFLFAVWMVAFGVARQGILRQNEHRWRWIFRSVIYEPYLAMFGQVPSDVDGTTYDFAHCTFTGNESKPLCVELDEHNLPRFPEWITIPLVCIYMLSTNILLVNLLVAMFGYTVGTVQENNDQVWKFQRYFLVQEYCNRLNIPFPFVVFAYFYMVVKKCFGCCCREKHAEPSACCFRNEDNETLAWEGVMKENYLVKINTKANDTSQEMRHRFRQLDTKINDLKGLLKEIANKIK
The experiment is described as follows: In Vitro Canine TRPM8 Functional Assay (Ca2+ fluorescence, icilin activation). It counts as cell-based. To be noted: for % Inh @ 0.2 μM: 0.2 μM compound; for % Inh @ 0.2 μM / % Inh @ 0.5 μM / inhibition at 0.5 µM / inhibition at 0.2 µM: canine TRPM8 HEK293, icilin; for % Inh @ 0.5 μM: 0.5 μM compound; for IC50: HEK293 cells stably expressing canine TRPM8, icilin activation, Ca2+ fluorescence; for inhibition at 0.5 µM: HEK293, 0.5 μM compound; for inhibition at 0.2 µM: HEK293, 0.2 μM compound. How it is done: The functional activity of compounds of the formula (I) was determined by measuring changes in intracellular calcium concentration using a Ca^2+-sensitive fluorescent dye. The changes in fluorescent signal were monitored by a fluorescence plate reader, either a FLIPR™ (Molecular Devices) or FDSS (Hamamatsu). Increases in intracellular Ca^2+ concentration were readily detected upon activation with icilin.
HEK293 cells stably expressing canine TRPM8 were routinely grown as monolayers in Dulbecco's minimum essential medium supplemented with 10% FBS, 2 mM L-glutamine, 100 units/mL penicillin, 100 ug/mL streptomycin and 400 μg/mL G418. Cells were maintained in 5% CO2 at 37° C. At 24 hrs prior to assay, cells were seeded in black wall, clear-base poly-D-lysine coated 384-well plates (BD Biosciences, NJ, USA) at a density of 5,000 cells per well in culture medium and grown overnight in 5% CO2 at 37° C. On assay day, growth media was removed and cells were loaded with Calcium 3 Dye (Molecular Devices) for 35 min at 37° C., under 5% CO2 and then for 25 min at room temperature and atmosphere. Subsequently, cells were tested for agonist-induced increases in intracellular Ca^2+ levels using FLIPR™ or FDSS. Cells were challenged with compounds of the formula (I) (at varying concentrations) and intracellular Ca^2+ was measured for 5 min prior to the addition of icilin to all wells to achieve a final concentration that produces approximately an 80% maximal response.
Maximal fluorescence intensity (FI) achieved upon addition of icilin was exported from the FLIPR or FDSS software and further analyzed using GraphPad Prism 3.02 (Graph Pad Software Inc., CA, U.S.A.). Basal FI was subtracted prior to normalizing data to percent of maximal response. Curves were generated using the average of quadruplicate wells for each data point, were analyzed using nonlinear regression of either sigmoidal dose response or sigmoidal dose response (variable slope).

For the compound `O=C(C(Nc1c(F)cccc1F)c1ccc(Br)cc1)N1CCCC1c1ccccc1F` (single isomer, unassigned) [Cpd 162], the “% Inh @ 0.5 μM” value is recorded as 99% and the IC50 came out at 5.45 nM. Moreover, for the setting “0.2 µM”, the “% Inh @ 0.2 μM” value was found to be 100%.
Consider `O=C(C(Nc1cccc(F)c1F)c1ccc(Cl)cc1)N1CCCC1c1ccccc1F` (single isomer, unassigned) [Cpd 163], for which the inhibition at 0.5 µM was found to be 94% and it took 145 nM to reach half-maximal inhibition (IC50).
Turning to `O=C(C(Nc1cccc(F)c1F)c1ccc(Cl)cc1)N1CCCC1c1ccccc1F` (single isomer, unassigned) [Cpd 164], the “% Inh @ 0.5 μM” value was 96% and the IC50 was 26 nM.
On to `O=C(C(Nc1cccc(F)c1F)c1ccc(Cl)cc1)N1CCCC1c1ccccc1Cl` (single isomer, unassigned) [Cpd 165], for which the inhibition at 0.5 µM turned out to be 99% and the IC50 worked out at 162 nM.
`O=C(C(Nc1cccc(F)c1F)c1ccc(Cl)cc1)N1CCCC1c1ccccc1Cl` (single isomer, unassigned) [Cpd 166]: the “% Inh @ 0.5 μM” value was found to be 96% and the IC50 worked out at 61 nM.
With `COc1ccccc1C1CCCN1C(=O)C(Nc1ccccc1F)c1ccc(Br)cc1` (single isomer, unassigned) [Cpd 175], the inhibition at 0.2 µM turned out to be 85% and inhibition was half-maximal at 69 nM (IC50).
As for `COc1ccccc1C1CCCN1C(=O)C(Nc1ccccc1F)c1ccc(Br)cc1` (single isomer, unassigned) [Cpd 176], the IC50 worked out at 30 nM. Besides, for the setting “0.2 µM”, the “% Inh @ 0.2 μM” value worked out at 94%.
`O=C(C(Nc1ccccc1F)c1ccc(C(F)(F)F)cc1)N1CCCC1c1cccc(F)c1` (single isomer, unassigned) [Cpd 185]: the inhibition at 0.2 µM came to 82% and the IC50 is 150 nM.
On to `O=C(C(Nc1ccccc1F)c1ccc(C(F)(F)F)cc1)N1CCCC1c1cccc(F)c1` (single isomer, unassigned) [Cpd 187], for which the IC50 amounted to 4 nM. Moreover, the “% Inh @ 0.2 μM” value (0.2 µM) turned out to be 98%.
In the case of `O=C(C(Nc1ccccc1F)c1ccc(C(F)(F)F)cc1)N1CCCC1c1ccccc1Cl` (single isomer, unassigned) [Cpd 189], the inhibition at 0.2 µM was determined as 98% and the IC50 is 9 nM.
In the case of `O=C(C(Nc1ccccc1F)c1ccc(C(F)(F)F)cc1)N1CCCC1c1ccccc1` (single isomer, unassigned) [Cpd 190], the inhibition at 0.2 µM came out at 89% and inhibition was half-maximal at 85 nM (IC50).
Compound `O=C(C(Nc1ccccc1F)c1ccc(C(F)(F)F)cc1)N1CCCC1c1ccccc1` (single isomer, unassigned) [Cpd 191] returned an IC50 of 5 nM. The “% Inh @ 0.2 μM” value (0.2 µM) is 100%.
For `O=C(C(Nc1ccccc1F)c1ccc(C(F)(F)F)cc1)N1CCCC1c1ccccc1Cl` (single isomer, unassigned) [Cpd 198], the IC50 is 19 nM and 35 nM. Besides, the “% Inh @ 0.2 μM” value (0.2 µM) is 101%.
As to `COC(=O)[C@@H]1CC[C@H](c2ccccc2)N1C(=O)C(Nc1c(F)cccc1F)c1ccc(Br)cc1` (single isomer, unassigned) [Cpd 204], the inhibition at 0.2 µM stood at 47%.
As to `COC(=O)[C@@H]1CC[C@H](c2ccccc2)N1C(=O)C(Nc1c(F)cccc1F)c1ccc(Br)cc1` (single isomer, unassigned) [Cpd 205], the “% Inh @ 0.2 μM” value (0.2 µM) is recorded as 62%.
As to `COC(=O)C1CCC(c2ccccc2)N1C(=O)C(Nc1ccccc1)c1ccc(Cl)cc1` (single isomer, unassigned) [Cpd 206], the inhibition at 0.2 µM amounted to 92% and the 50% inhibitory concentration (IC50) amounted to 76 nM.
In the case of `COC(=O)C1CCC(c2ccccc2)N1C(=O)C(Nc1ccccc1F)c1ccc(Br)cc1` (single isomer, unassigned) [Cpd 208], the inhibition at 0.2 µM was determined as 101% and half-maximal inhibition (IC50) required 9 nM.
`COC(=O)C1CCC(c2ccccc2)N1C(=O)C(Nc1ccccc1F)c1ccc(Br)cc1` (single isomer, unassigned) [Cpd 209] returned an IC50 of 99 nM. For the same compound, the “% Inh @ 0.2 μM” value (0.2 µM) was 94%.
`COC(=O)C1CCC(c2ccccc2)N1C(=O)C(Nc1ccccc1)c1ccc(Cl)cc1` (single isomer, unassigned) [Cpd 212] returned an IC50 of 17 nM. Also, for the setting “0.2 µM”, the “% Inh @ 0.2 μM” value amounted to 99%.
`O=C(C(Nc1ccccc1)c1ccc(Cl)cc1)N1[C@H](CO)CC[C@@H]1c1ccccc1` (single isomer, unassigned) [Cpd 235] showed an IC50 of 53.7 nM.
Take `O=C(C(Nc1ccccc1F)c1ccc(Br)cc1)N1[C@@H](CO)CC[C@H]1c1ccccc1` (single isomer, unassigned) [Cpd 242]: half-maximal inhibition (IC50) was put at 65.5 nM. The IC50 values of the last two compounds are within 1.5-fold of each other.
For the compound `O=C([C@H](Nc1c(F)cccc1F)c1ccc(Br)cc1)N1[C@H](CO)CC[C@@H]1c1ccccc1` (single isomer, unassigned) [Cpd 243], the inhibition at 0.2 µM turned out to be 88% and the midpoint of inhibition, the IC50, lay at 133 nM.
For `O=C(C(Nc1ccccc1F)c1ccc2ncccc2c1)N1CCCC1c1ccccc1F` (single isomer, unassigned) [Cpd 247], in that order: 93% and 8.4 nM.
In turn, `O=C(C(Nc1ccccc1F)c1ccc2ncccc2c1)N1CCCC1c1ccccc1F` (single isomer, unassigned) [Cpd 251] gave an IC50 of 53.7 nM. Further, the “% Inh @ 0.2 μM” value (0.2 µM) is 90%.
In the case of `O=C(C(c1ccc(C(F)(F)F)cc1)N1CCc2ccccc21)N1CCC[C@H]1c1cccnc1` (single isomer, unassigned) [Cpd 274], the inhibition at 0.2 µM turned out to be 98% and the IC50 came out at 17 nM.
As for `COc1ccccc1C1CCCN1C(=O)C(Nc1ccccc1F)c1cnc2ccccc2c1` (single isomer, unassigned) [Cpd 277], the inhibition at 0.2 µM stood at 101% and the IC50 was 8 nM.
For the compound `COc1ccccc1C1CCCN1C(=O)C(Nc1ccccc1F)c1cnc2ccccc2c1` (single isomer, unassigned) [Cpd 278], the IC50 was 31 nM and 36 nM. Moreover, the “% Inh @ 0.2 μM” value (0.2 µM) was 94% and 101%.
For `O=C(C(Nc1ccccc1F)c1cnc2ccccc2c1)N1CCC[C@H]1c1ccccc1F` (single isomer, unassigned) [Cpd 280], the inhibition at 0.2 µM is 93%; the IC50 was 4 nM and 8 nM. In addition, where the note is “0.2 µM”, the “% Inh @ 0.2 μM” value was 101%.
For the compound `O=C(C(Nc1ccccc1F)c1ccc(-c2ccccn2)cc1)N1CCCC1c1ccccc1F` (single isomer, unassigned) [Cpd 296], the inhibition at 0.2 µM turned out to be 88%; the 50% inhibitory concentration (IC50) was 4 nM and 9 nM. In addition, the “% Inh @ 0.2 μM” value (0.2 µM) was 96%.
With `O=C(C(Nc1ccccc1F)c1ccc(-c2ccccn2)cc1)N1CCCC1c1ccccc1F` (single isomer, unassigned) [Cpd 297], the IC50 is 65 nM and 69 nM. For the same compound, the “% Inh @ 0.2 μM” value (0.2 µM) was 85% and 87%.
In the case of `O=C(C(Nc1ccccc1F)c1cnc2ccccc2c1)N1CCCC1c1cccnc1` (single isomer, unassigned) [Cpd 298], the “% Inh @ 0.2 μM” value came out at 22%.
Turning to `O=C(C(Nc1ccccc1F)c1ccc(-c2ccccc2)nc1)N1CCC[C@H]1c1ccccc1F` (single isomer, unassigned) [Cpd 307], the inhibition at 0.2 µM came to 102% and the IC50 stood at 4 nM.
Take `O=C(C(Nc1ccccc1F)c1ccc(-c2ccccc2)nc1)N1CCCC1c1ccccc1F` (single isomer, unassigned) [Cpd 308]: the “% Inh @ 0.2 μM” value is 11%.
With `O=C(C(Nc1ccccc1F)c1ccc2ncccc2c1)N1CCCC1c1ccccc1Cl` (single isomer, unassigned) [Cpd 315], the “% Inh @ 0.2 μM” value came to 49%.
On to `O=C(C(Nc1ccccc1F)c1cc2ccccc2s1)N1CCCC1c1ccncc1` (single isomer, unassigned) [Cpd 322], for which the inhibition at 0.2 µM came to 89% and half-maximal inhibition (IC50) was put at 8 nM.
On to `O=C(C(Nc1ccccc1F)c1cc2ccccc2s1)N1CCCC1c1ccncc1` (single isomer, unassigned) [Cpd 323], for which the IC50 turned out to be 24 nM. In addition, the “% Inh @ 0.2 μM” value (0.2 µM) was 95%.
For `O=C(C(Nc1ccccc1F)c1cc2ccccc2s1)N1CCCC1c1ccccn1` (single isomer, unassigned) [Cpd 330], the inhibition at 0.2 µM amounted to 101% and the midpoint of inhibition, the IC50, lay at 6 nM.
For the compound `O=C(C(Nc1ccccc1F)c1cc2ccccc2s1)N1CCCC1c1ccccn1` (single isomer, unassigned) [Cpd 331], the “% Inh @ 0.2 μM” value came out at 101% and the IC50 is 13 nM.
For `O=C(C(Nc1ccccc1F)c1cncc2ccccc12)N1CCCC1c1ccccc1F` (single isomer, unassigned) [Cpd 332], the “% Inh @ 0.2 μM” value (0.2 µM) stood at 47%.
The same measure, in the same setting: then `O=C(C(Nc1ccccc1F)c1cncc2ccccc12)N1CCCC1c1ccccc1F` (single isomer, unassigned) [Cpd 333], with 62%.
For `O=C(C(Nc1ccccc1F)c1ccc(-c2ccccn2)cc1)N1CCCC1c1ccccc1Cl` (single isomer, unassigned) [Cpd 338], the inhibition at 0.2 µM turned out to be 101% and the midpoint of inhibition, the IC50, lay at 17 nM.
